Tests used:
Type in all cases: cell-based
T-47D cells = experiment: Inhibition of cell proliferation in T-47D cells (CCK-8); settings: 6 days treatment, CCK-8 cell viability
Outline: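 T-47D cells (3,000/well) in RPMI-1640 with 10% FBS were exposed to a concentration range of PROTAC compounds for 6 days at 37 °C, 5% CO2. Viability read by CCK-8; IC50 fitted from inhibition rate.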

ERα [1] = target: T1, ERα (Homo sapiens, UniProt P03372); experiment: ERα degradation in T-47D cells (Western blot); settings: 4 hours
T1 sequence (P03372 1-595): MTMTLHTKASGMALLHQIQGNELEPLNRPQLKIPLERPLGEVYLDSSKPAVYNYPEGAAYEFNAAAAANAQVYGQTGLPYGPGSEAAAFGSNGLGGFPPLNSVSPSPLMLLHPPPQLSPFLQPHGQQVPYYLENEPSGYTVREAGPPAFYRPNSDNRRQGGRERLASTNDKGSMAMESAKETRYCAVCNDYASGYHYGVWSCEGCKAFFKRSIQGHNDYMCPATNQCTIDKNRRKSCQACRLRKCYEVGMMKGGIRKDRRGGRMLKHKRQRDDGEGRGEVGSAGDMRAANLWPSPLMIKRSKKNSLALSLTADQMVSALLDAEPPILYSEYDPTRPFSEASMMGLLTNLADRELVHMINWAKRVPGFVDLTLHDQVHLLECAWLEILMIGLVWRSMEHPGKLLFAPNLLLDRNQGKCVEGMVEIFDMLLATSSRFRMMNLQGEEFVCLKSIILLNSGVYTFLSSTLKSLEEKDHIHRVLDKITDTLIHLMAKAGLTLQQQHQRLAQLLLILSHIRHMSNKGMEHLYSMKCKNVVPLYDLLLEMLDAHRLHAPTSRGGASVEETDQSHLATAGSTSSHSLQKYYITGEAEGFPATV
Procedure: (§1) Western blotting: The total protein concentration in the collected cell lysate supernatant was determined using the BCA protein concentration assay kit (enhanced) (P0009, Beyotime). Based on the total protein concentration determined by BCA, the protein concentration was adjusted to 1 µg/µL using RIPA lysis buffer and 5× SDS-PAGE protein loading buffer (MB01015, GenScript). The protein was denatured in a 95°C water bath for 5 minutes. After denaturation, the condensed water on the tube wall was collected by centrifugation and used as the loading sample. 20µL of the loading sample (20 µg of total protein) was added to the sample well of a 12% precast gel (M00669, GenScript). Electrophoresis was performed at 100 V for 20 minutes, followed by switching to 150 V for 40 minutes. After electrophoresis, the proteins from the SDS-PAGE gel were transferred to a PVDF membrane at a constant voltage of 100 V for 60 minutes. After transfer, the PVDF membrane corresponding to the ERα protein and internal reference protein was cut and incubated in 1× QµickBlock blocking buffer (P0252, Beyotime) for 30 minutes at room temperature on a shaker. After blocking, the ERα primary antibody (1:1000, 8644S, CST) was added and incubated overnight at 4°C on a shaker. The PVDF membrane was washed three times with 1× TBST buffer for 5 minutes each. Rabbit IgG (H+L) secondary antibody (1:7500, SA5-35571, Invitrogen) was added and incubated for 1 hour at room temperature on a shaker. The membrane was then washed again three times with 1× TBST buffer for 5 minutes each. Finally, the membrane was imaged using a dual-color infrared laser imaging system (Odyssey DLx, LICOR). Protein maps were analyzed for grayscale value using Image Studio Lite software. The grayscale correction value for each sample was calculated using the formula: grayscale correction value = grayscale value of the target protein / grayscale value of the corresponding internal reference. Then the grayscale correction values of the compound group and the control group were compared to calculate the degradation rate of the compound. Table 4 Degradation rate of ERα by PROTAC compounds of the present invention and positive control in MCF-7 cells (%)
Test Example 5 Degradation of ERα by the PROTAC compounds disclosed in the present invention in T-47D cells
T-47D (ATCC) cells were cultured in PRMI-1640 medium (30-2001, ATCC) containing 10% FBS (10099141C, Gibco) at 37°C and 5% CO2 until they entered the logarithmic growth phase. T-47D cells were seeded at a density of 3×10^5 cells/well in a 6-well plate and incubated at 37°C, 5% CO2 for 24 hours. After cell attachment, 1 µL of compound dimethyl sulfoxide solution (final concentration 0.15-1000 nM) was added and incubated for another 4 hours at 37°C, 5% CO2 incubator. After 4 hours, the culture medium was discarded, and each well was washed once with 1 mL of pre-chilled 1× DPBS. The cells were then lysed with 50 µL of RIPA lysis buffer (P0013B, Beyotime) and 1× protease inhibitor cocktail (P1005, Beyotime). After incubation on ice for 20 minutes, the cells were centrifuged at 14,000 g at 4°C for 30 minutes. The supernatant was carefully collected and analyzed for ERα protein levels by immunoblotting. Table 5 Degradation rate of ERα by PROTAC compounds of the present invention and positive control sample in T-47D cells (%)

ERα [2] = target: T1, ERα; experiment: ERα degradation in MCF-7 cells (Western blot); parameters: host or cells: MCF-7; settings: 4 hours
Procedure: Test Example 4 Effect of PROTAC Compounds Disclosed in the Present Invention on ERα Degradation in MCF-7 Cells
MCF-7 (ATCC) cells were cultured in DMEM medium (11995-065, Gibco) containing 10% FBS (10099141C, Gibco) at 37°C and 5% CO2 until they entered the logarithmic growth phase. MCF-7 cells were plated at a density of 3×10^5 cells/well in a 6-well plate and incubated at 37°C, 5% CO2 for 24 hours. After cell attachment, 1µL of compound in dimethyl sulfoxide (final concentration 0.15-1000nM) was added and incubated for another 4 hours at 37°C, 5% CO2 incubator. After 4 hours, the culture medium was discarded, and each well was washed once with 1 mL of pre-chilled 1× DPBS. The cells were then lysed with 50 µL of RIPA lysis buffer (P0013B, Beyotime) and 1× protease inhibitor cocktail (P1005, Beyotime). After incubation on ice for 20 minutes, the cells were centrifuged at 14,000 g at 4°C for 30 minutes. The supernatant was carefully collected and analyzed for ERα protein levels by immunoblotting.
as §1

MCF-7 cells = experiment: Inhibition of cell proliferation in MCF-7 cells (CCK-8); settings: MCF-7 cell proliferation, 6 days treatment
Outline: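 MCF-7 cells, 800 per well in DMEM plus 10% FBS, exposed to graded PROTAC concentrations for 6 days at 37 °C, 5% CO2. Viability by CCK-8; IC50 fitted from inhibition rates.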

## O=C1CCC(Nc2ccc3c(c2)COC[C@H]2CN(CC4CCC(OC5CCN(c6ccc([C@@H]7c8ccc(O)cc8CC[C@@H]7c7ccccc7)cc6)CC5)CC4)CCN32)C(=O)N1 (single isomer, unassigned) [ER-P-50]
T-47D cells; Homo sapiens, T47D, 144 h
  IC50: 45.6 nM
ERα [1]; 1nM
  Degradation rate of ERα in T-47D cells (%): 4%
ERα [1]; 10nM
  Degradation rate of ERα in T-47D cells (%): 18%
ERα [2]; 1nM
  Degradation rate of ERα in MCF-7 cells (%): 1%
ERα [2]; 10nM
  Degradation rate of ERα in MCF-7 cells (%): 9%
MCF-7 cells
  IC50: 3270 nM

## O=C1CCC(Nc2ccc3c(c2)COC[C@H]2CN(CC4CCC(OC5CCN(c6ccc([C@@H]7c8ccc(O)cc8CC[C@@H]7c7ccccc7)cc6)CC5)CC4)CCN32)C(=O)N1 (single isomer, unassigned) [ER-P-51]
T-47D cells
  IC50: 74.3 nM
ERα [1]; 1nM
  Degradation rate of ERα in T-47D cells (%): 14%
ERα [1]; 10nM
  Degradation rate of ERα in T-47D cells (%): 12%
ERα [2]; 1nM
  Degradation rate of ERα in MCF-7 cells (%): 5%
ERα [2]; 10nM
  Degradation rate of ERα in MCF-7 cells (%): 1%
MCF-7 cells
  IC50: 1260 nM

## O=C1CC[C@H](N2Cc3cc(N4CCN(CC5CCN(c6ccc([C@@H]7c8ccc(O)cc8CC[C@@H]7c7ccccc7)cc6)CC5)CC4)ccc3C2=O)C(=O)N1 [ARV-471, reference compound]
T-47D cells; Homo sapiens, T47D, 144 h
  IC50: 0.0017 nM
ERα [1]; 1nM
  Degradation rate of ERα in T-47D cells (%): 61%
ERα [1]; 10nM
  Degradation rate of ERα in T-47D cells (%): 85%
ERα [2]; 1nM
  Degradation rate of ERα in MCF-7 cells (%): 38%
ERα [2]; 10nM
  Degradation rate of ERα in MCF-7 cells (%): 76%
MCF-7 cells; Homo sapiens, MCF7, 144 h
  IC50: 0.0017 nM

## O=C1CCC(N2Cc3c(ccc4c3OCC43CCC4(CCN(CC5CCN(c6ccc([C@@H]7c8ccc(O)cc8CC[C@@H]7c7ccccc7)cc6)CC5)CC4)CC3)C2=O)C(=O)N1 (stereo partly drawn) [ER-P-1, 3-(1"-((1-(4-((1R,2S)-6-hydroxy-2-phenyl-1,2,3,4-tetrahydronaphthalen-1-yl)phenyl)piperidin-4-yl)methyl)-6-oxo-6,8-dihydro-2H,7H-dipyrazole[furo[2,3-e]isoindole-3,1'-cyclohexane-4',4'-piperidin]-7-yl)piperidine-2,6-dione]
T-47D cells; Homo sapiens, T47D, 144 h
  IC50: 3.74 nM
ERα [1]; 1nM
  Degradation rate of ERα in T-47D cells (%): 52%
ERα [1]; 10nM
  Degradation rate of ERα in T-47D cells (%): 81%
ERα [2]; 1nM
  Degradation rate of ERα in MCF-7 cells (%): 19%
ERα [2]; 10nM
  Degradation rate of ERα in MCF-7 cells (%): 44%
MCF-7 cells; Homo sapiens, MCF7, 144 h
  IC50: < 0.256 nM

## O=C1CCC(N2Cc3c(ccc4c3OCC43CCC4(CCN(C5CCC6(CC5)CN(c5ccc([C@@H]7c8ccc(O)cc8CC[C@@H]7c7ccccc7)cc5)C6)CC4)CC3)C2=O)C(=O)N1 (stereo partly drawn) [ER-P-2]
T-47D cells; Homo sapiens, T47D, 144 h
  IC50: 2.02 nM
ERα [1]; 1nM
  Degradation rate of ERα in T-47D cells (%): 26%
ERα [1]; 10nM
  Degradation rate of ERα in T-47D cells (%): 54%
ERα [2]; 1nM
  Degradation rate of ERα in MCF-7 cells (%): 7%
ERα [2]; 10nM
  Degradation rate of ERα in MCF-7 cells (%): 48%
MCF-7 cells; Homo sapiens, MCF7, 144 h
  IC50: 62.6 nM

## O=C1CCC(N2Cc3c(ccc4c3OCC43CCC4(CCN(C5CC6(CCN(c7ccc([C@@H]8c9ccc(O)cc9CC[C@@H]8c8ccccc8)cc7)CC6)C5)CC4)CC3)C2=O)C(=O)N1 (stereo partly drawn) [ER-P-3]
T-47D cells; Homo sapiens, T47D, 144 h
  IC50: 3.02 nM
ERα [1]; 1nM
  Degradation rate of ERα in T-47D cells (%): 28%
ERα [1]; 10nM
  Degradation rate of ERα in T-47D cells (%): 73%
ERα [2]; 1nM
  Degradation rate of ERα in MCF-7 cells (%): 25%
ERα [2]; 10nM
  Degradation rate of ERα in MCF-7 cells (%): 69%
MCF-7 cells; Homo sapiens, MCF7, 144 h
  IC50: < 0.256 nM

## O=C1CCC(N2Cc3c(ccc4c3OCC43CCC4(CC3)CN(C(=O)C3CCN(c5ccc([C@@H]6c7ccc(O)cc7CC[C@@H]6c6ccccc6)cc5)CC3)C4)C2=O)C(=O)N1 (stereo partly drawn) [ER-P-4, 3-(1-(1-(4-(((1R,2S)-6-hydroxy-2-phenyl-1,2,3,4-tetrahydronaphthalen-1-yl)phenyl)piperidine-4-carbonyl)-6'-oxo-6',8'-dihydro-2'H,7'H-diazetidine-3,1'-cyclohexane-4',3"-furo[2,3-e]isoindol]-7'-yl)piperidine-2,6-dione]
T-47D cells; Homo sapiens, T47D, 144 h
  IC50: 3.63 nM
ERα [1]; 1nM
  Degradation rate of ERα in T-47D cells (%): 21%
ERα [1]; 10nM
  Degradation rate of ERα in T-47D cells (%): 54%
ERα [2]; 1nM
  Degradation rate of ERα in MCF-7 cells (%): 9%
ERα [2]; 10nM
  Degradation rate of ERα in MCF-7 cells (%): 20%
MCF-7 cells; Homo sapiens, MCF7, 144 h
  IC50: 92000 nM

## O=C1CCC(N2Cc3c(ccc4c3OCC43CCC4(CCN(C5CCN(C(=O)C6CCN(c7ccc([C@@H]8c9ccc(O)cc9CC[C@@H]8c8ccccc8)cc7)CC6)CC5)CC4)CC3)C2=O)C(=O)N1 (stereo partly drawn) [ER-P-5]
T-47D cells; Homo sapiens, T47D, 144 h
  IC50: 0.96 nM
ERα [1]; 1nM
  Degradation rate of ERα in T-47D cells (%): 39%
ERα [1]; 10nM
  Degradation rate of ERα in T-47D cells (%): 79%
ERα [2]; 1nM
  Degradation rate of ERα in MCF-7 cells (%): 25%
ERα [2]; 10nM
  Degradation rate of ERα in MCF-7 cells (%): 57%
MCF-7 cells; Homo sapiens, MCF7, 144 h
  IC50: < 0.256 nM

## O=C1CCC(N2Cc3c(ccc4c3OCC43CCC4(CC3)CN(C3CCN(C(=O)C5CCN(c6ccc([C@@H]7c8ccc(O)cc8CC[C@@H]7c7ccccc7)cc6)CC5)CC3)C4)C2=O)C(=O)N1 (stereo partly drawn) [ER-P-6]
T-47D cells; Homo sapiens, T47D, 144 h
  IC50: 0.86 nM
ERα [1]; 1nM
  Degradation rate of ERα in T-47D cells (%): 61%
ERα [1]; 10nM
  Degradation rate of ERα in T-47D cells (%): 83%
ERα [2]; 1nM
  Degradation rate of ERα in MCF-7 cells (%): 55%
ERα [2]; 10nM
  Degradation rate of ERα in MCF-7 cells (%): 71%
MCF-7 cells; Homo sapiens, MCF7, 144 h
  IC50: < 0.256 nM

## Cn1c(=O)n(C2CCC(=O)NC2=O)c2ccc3c(c21)C1(CCN(C(=O)[C@H]2CC[C@H](CN4CCN(c5ccc([C@@H]6c7ccc(O)cc7CC[C@@H]6c6ccccc6)cc5)CC4)CC2)CC1)CO3 (stereo partly drawn) [ER-P-7]
T-47D cells; Homo sapiens, T47D, 144 h
  IC50: 1.74 nM
ERα [1]; 1nM
  Degradation rate of ERα in T-47D cells (%): 44%
ERα [1]; 10nM
  Degradation rate of ERα in T-47D cells (%): 77%
ERα [2]; 1nM
  Degradation rate of ERα in MCF-7 cells (%): 22%
ERα [2]; 10nM
  Degradation rate of ERα in MCF-7 cells (%): 62%
MCF-7 cells; Homo sapiens, MCF7, 144 h
  IC50: 603 nM
